Results from the supplement of paper PMC10307832.

Each cell line was assayed with Cn1cnc2c(F)c(Nc3ccc(Br)cc3Cl)c(C(=O)NOCCO)cc21 [Selumetinib] + CCNC(=O)c1noc(-c2cc(C(C)C)c(O)cc2O)c1-c1ccc(CN2CCOCC2)cc1 [Luminespib] (partner 0.01 µM) (assay: relative viability (nuclei count vs DMSO), 5 days (fraction); higher = more cells survive). Conditions: first compound 0.02 µM.
Outline: (§1)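 A single step with final 0.05% Triton X-100, 1% formaldehyde and 1 ug/ml Hoechst fixed the cells and stained nuclei 5 days after treatment. Lung cancer cell lines in 1536-well plates had been treated by pin tool the day after seeding with one drug alone or a fixed anchor-drug dose plus five library-drug doses (not always all listed) in √10 steps, and nuclei were counted on 4× images. Relative viability is the ratio of nuclei in treated wells to nuclei in vehicle wells, taken as the median of duplicate plates.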

Cell Line	relative viability
EMC-BAC-2	1.19
NCI-H2126	0.839
HCC-44	1.33
NCI-H1734	0.195
NCI-H650	0.836
LK-2	0.151
NCI-H2228	0.154
NCI-H2342	0.655
SK-MES-1	0.74
HARA	0.708
COR-L23	0.644
COR-L 105	0.769
LC-2-ad	0.912
LXF-289	0.692
ChaGo-K-1	0.531
NCI-H2170	0.358
NCI-H322M	0.739
SW 900	0.19
BEN	0.28
HCC-15	0.199
HCC-827	0.621
NCI-H1563	0.507
NCI-H1650	0.194
ABC-1	0.581

Same assay, conditions: first compound 0.06325 µM

Cell Line	relative viability
NCI-H522	1.14
NCI-H1623	0.352
PC-14	0.177
NCI-H1666	0.829
NCI-H1755	0.531
NCI-H2023	0.669
EPLC-272H	0.276
LCLC-97TM1	0.622
PC-3 [JPC-3]	0.625
LOU-NH91	0.302
NCI-H647	0.141
NCI-H23	0.215
EMC-BAC-2	1.18
NCI-H2126	0.756
HCC-44	1.03
NCI-H1734	0.176
NCI-H650	0.677
LK-2	0.136

Cell Line	relative viability
NCI-H2228	0.14
NCI-H2342	0.64
SK-MES-1	0.559
HARA	0.783
COR-L23	0.637
COR-L 105	0.689
LC-2-ad	0.882
LXF-289	0.688
ChaGo-K-1	0.48
NCI-H2170	0.845
NCI-H322M	0.547
SW 900	0.131
BEN	0.83
HCC-15	0.19
HCC-827	0.694
NCI-H1563	0.499
NCI-H1650	0.2
ABC-1	0.422

Same assay, conditions: first compound 0.2 µM

Cell Line	relative viability
NCI-H522	0.887
NCI-H1623	0.394
PC-14	0.163
NCI-H1666	0.943
NCI-H1755	0.495
NCI-H2023	0.575
EPLC-272H	0.203
LCLC-97TM1	0.415
PC-3 [JPC-3]	0.458
LOU-NH91	0.329
NCI-H647	0.125
NCI-H23	0.188
EMC-BAC-2	1.1
NCI-H2126	0.792
HCC-44	0.909
NCI-H1734	0.17
NCI-H650	0.73
LK-2	0.19

Cell Line	relative viability
NCI-H2228	0.125
NCI-H2342	0.677
SK-MES-1	0.344
HARA	0.536
COR-L23	0.721
COR-L 105	0.46
LC-2-ad	0.88
LXF-289	0.491
ChaGo-K-1	0.731
NCI-H2170	0.651
NCI-H322M	0.572
SW 900	0.159
BEN	0.404
HCC-15	0.158
HCC-827	0.438
NCI-H1563	0.527
NCI-H1650	0.198
ABC-1	0.607

Same assay, conditions: first compound 0.6325 µM

Cell Line	relative viability
NCI-H522	0.759
NCI-H1623	0.41
PC-14	0.151
NCI-H1666	0.757
NCI-H1755	0.368
NCI-H2023	0.575
EPLC-272H	0.171
LCLC-97TM1	0.411
PC-3 [JPC-3]	0.442
LOU-NH91	0.359
NCI-H647	0.136
NCI-H23	0.175
EMC-BAC-2	1.12
NCI-H2126	0.782
HCC-44	0.519
NCI-H1734	0.152
NCI-H650	0.651
LK-2	0.165

Cell Line	relative viability
NCI-H2228	0.193
NCI-H2342	0.69
SK-MES-1	0.375
HARA	0.168
COR-L23	0.409
COR-L 105	0.404
LC-2-ad	0.83
LXF-289	0.544
ChaGo-K-1	0.568
NCI-H2170	0.617
NCI-H322M	0.481
SW 900	0.155
BEN	0.347
HCC-15	0.0809
HCC-827	0.244
NCI-H1563	0.52
NCI-H1650	0.202
ABC-1	0.314

What follows are cell lines tested with CC1(C)CCC(CN2CCN(c3ccc(C(=O)NS(=O)(=O)c4ccc(NCC5CCOCC5)c([N+](=O)[O-])c4)c(Oc4cnc5[nH]ccc5c4)c3)CC2)=C(c2ccc(Cl)cc2)C1 [Venetoclax] + Cc1nc(NC(=O)N2CCC[C@H]2C(N)=O)sc1-c1ccnc(C(C)(C)C(F)(F)F)c1 [Alpelisib] (partner 2 µM) in the same assay as above. Conditions: first compound 0.01 µM.
Outline: as §1

Cell Line	relative viability
PC-14	0.882
NCI-H1666	0.8
EBC-1	0.815
NCI-H1755	0.968
NCI-H2023	0.574
PC-3 [JPC-3]	0.917
LOU-NH91	0.653
NCI-H647	0.703
NCI-H23	0.658
EMC-BAC-2	0.707
NCI-H2126	0.807
Calu-6	0.946
HCC-44	0.795
NCI-H1734	0.682
NCI-H650	1.07
LK-2	0.993
NCI-H2228	0.696
SK-MES-1	0.857
HARA	0.728
COR-L23	0.7
COR-L 105	0.983
LC-2-ad	0.839
LXF-289	1.05
